According to patent EP1283052A1, “Pharmaceutical composition containing caspase-8 and /or caspase-9 useful for overcoming glucocorticoid- and cancer therapy-induced apoptosis of tumours” (Deutsches Krebsforschungszentrum Stiftung des öffentlichen …, priority 2001, dated 2003):

What was measured:
[1] = tested on: caspase-3; assay: Fluorometric caspase-3 activity assay in CEM leukemic T cells; format: cell-based, human; settings: cisplatin 2 µg/ml alone, Fig. 1c
Protocol: • (a) Human epidermoid lung cancer cells (P693) were injected into nude mice. At a tumour volume of 500 mm^3 weekly treatment with cisplatin (5mg/kg/week) was started. Cisplatin was injected intraperitoneally in the absence (CIS) or presence (DEX/CIS) of DEX which was added to the drinking water (0.28 mg/L) for the duration of the experiment. […] As controls, tumor growth of xenografts from mice which received neither cisplatin nor DEX (CO) or from mice which received DEX only (DEX) was determined. The tumour volume in each animal was measured at weekly intervals for a period of 5 weeks. Data are presented as the means +/- SD of 6 to 8 animals. • (b) The human cervical carcinoma cell lines HeLa and P5 were γ-irradiated (10 Gy) or treated with cisplatin (2 µg/ml) in the absence (white bars) or presence (black bars) of DEX (1 µM). The percentage of apoptosis was measured in untreated (CO) and stimulated cells by annexin-staining and FACS-analysis at the time points indicated. (c) P5, P693 and human leukemic T cells (CEM) cells were treated with cisplatin (2 µg/ml) in the absence or presence of DEX as indicated. 24 and 48 h following treatment cells were lysed and caspase-3 activity was determined by a fluorescent caspase-3 assay and spectroscopy.

[2] = tested on: P5 cells; assay: P5 xenografts in nude mice, intratumoural therapy, tumour volume; format: in vivo; settings: Fig. 7
Protocol: P5 cells were injected subcutaneously in nude mice. At a tumour volume of 500 mm^3 therapy was started (day 0) and repeated at day 2 and 12 as indicated by arrows. A total volume of 100 µl in PBS was injected intratumoural containing liposomes and cisplatin (5mg/kg), or liposomes with cisplatin and a mixture of recombinant caspase-8 and -9 proteins (10 U each) and pcDNA3caspase-8 and pcDNA3caspase-9 expression vectors (10 µg each) in the absence (CIS) or presence of DEX (DEX/CIS), (DEX/CIS/CASPASES) in the drinking water (0.28 mg/L). As controls, tumour growth of xenografts from untreated mice (CO) or from mice which received liposomes and empty pcDNA3 expression vector only (CO/Liposomes) was determined. The tumour volume in each animal was measured every second day for a period of 16 days. […]
• (A) Cell culture. […] The mice were given 0.28 mg/L DEX in drinking water, and the amount of water consumed was monitored. […] The tumour volumes were measured using callipers, and calculated using, as an approximation, the formula for volume of a hemi-ellipsoid: π(width^2 x length)/6. […] Early apoptotic changes were identified by staining of cells with fluoresceinthiocyanate (FITC)-conjugated annexin V and propidium iodide (Becton Dickinson, Heidelberg, Germany) and analysed by flow cytometry (FACScan, Becton Dickinson) as described (Herr et al., EMBO J. 16 (1997), 6200-6208) • (E) Immunohistochemistry. […]

Structure (SMILES): N.N.[Cl][Pt][Cl] [cisplatin]
- caspase-3 activity [1]: responded earlier at 24 h with increased activity at 48 h
- tumour growth ([2]; cisplatin 5mg/kg with liposomes intratumoural, day 0, 2 and 12, initial phase): initially reduced
- tumour growth ([2]; cisplatin-treated tumours at day 10 after treatment): developed resistance and started to grow
